The test system of one data set is PLK-1 mRNA. Kind of data set: PLK-1 mRNA silencing in cell cultures (QuantiGene branched DNA assay). Format: cell-based, human. Particulars: 0.12-30 nM SNALP, 24 h. The procedure:
Target mRNA Quantitation: The QuantiGene® branched DNA assay (Panomics, Inc.; Fremont, Calif.) was used to quantify the reduction of target mRNA in cell cultures treated with SNALP. Cell lysates were prepared according to the manufacturer's instructions and used directly for PLK1 mRNA quantification. Relative PLK-1 mRNA levels are expressed relative to the vehicle (PBS) treated control cells. Specific probe sets used for detection of mRNA were designed to target human PLK-1 mRNA (Genbank Accession No. NM_005030). These probe sets are cross reactive with mouse PLK-1.
PLK-1 SNALP (“2:40” SNALP formulation: 2% PEG-cDMA; 40% DLinDMA; 10% DSPC; and 48% cholesterol) were tested for their ability to silence PLK-1 mRNA in HT29 cells. Cells were plated in duplicates at relatively high concentrations (˜10,000 cells/well). QuantiGene® analysis was performed at 24 hours following transfection to detect the level of mRNA down-regulation. A visual score of the transfected cells was obtained at 48 hours following transfection. Cell viability analysis was performed at 72 hours following transfection.
(§1) SNALP containing PLK1424 or PLK773 siRNA (“2:40” SNALP formulation: 2% PEG-cDMA; 40% DLinDMA; 10% DSPC; and 48% cholesterol) were tested for their effects on cell viability and silencing of PLK-1 mRNA in HT29 and LS174T human colon cancer cells. Cells were plated in triplicate at ˜10,000 cells/well. SNALP dosages were as follows: 30 nM; 10 nM; 3.3 nM; 1.1 nM; 0.37 nM; and 0.12 nM. Branched DNA mRNA assays were performed 24 hours following transfection. Cell viability assays were performed at 72 hours following transfection. SNALP containing a non-targeting (GFP) siRNA were used as a negative control. […] The effects on cell viability correlated with silencing of the target PLK-1 mRNA.

For a further data set, the system named is HT29 cells. The data set is described as follows: HT29 cell viability assay (CellTiter-Blue). Format: cell-based, human. The following applies: for anti-proliferative activity in screen of PLK-1 siRNA panel: HT29 cells, 1, 5, 25 nM, 72 h; for cell viability / killing of human tumor cells: HT29 cells, SNALP-formulated siRNA at a range of siRNA concentrations, viability at 72 h relative to PBS. The procedure:
(§2) Various PLK-1 siRNAs were formulated as SNALP (“2:40” SNALP formulation: 2% PEG-cDMA; 40% DLinDMA; 10% DSPC; and 48% cholesterol) and evaluated for their inhibitory effects on cell growth in vitro. HT29 (human colon adenocarcinoma) or Neuro2A (mouse neuroblastoma) cells were treated with various PLK-1 SNALP at a range of siRNA concentrations and their effect on cell viability was evaluated. Viability of cell cultures is expressed as % viability relative to PBS treated controls.
Additional PLK-1 siRNA molecules were formulated as SNALP (“2:40” SNALP formulation: 2% PEG-cDMA; 40% DLinDMA; 10% DSPC; and 48% cholesterol) and evaluated for their inhibitory effects on cell growth in vitro. HT29 or Neuro2A cells were plated in triplicate at 5000 cells/well and 2500 cells/well, respectively. PLK-1 SNALP dosages were as follows: 25 nM; 5 nM; and 1 nM. Cell viability analysis was performed at 72 hours following transfection. SNALP containing a non-targeting (GFP) siRNA were used as a negative control. […]
PLK-1 siRNA molecules containing 2′-O-methyl (2′OMe) nucleotides at selective positions within the double-stranded region of the siRNA duplex were formulated as SNALP (“2:40” SNALP formulation: 2% PEG-cDMA; 40% DLinDMA; 10% DSPC; and 48% cholesterol) and evaluated for their inhibitory effects on cell growth in vitro. HT29 cells were plated in triplicate at 5000 cells/well. Cell viability analysis was performed at 72 hours following transfection with a range of PLK-1 SNALP dosages. SNALP containing a non-targeting (GFP) siRNA were used as a negative control.
Cell viability assays. […] Cell viability analysis was performed at 72 hours following transfection with a range of PLK-1 SNALP dosages.
For orientation: Resazurin is reduced to fluorescent resorufin, in cell work by metabolically active cells.

A further data set relates to Neuro2A cells. Kind of data set: Neuro2A cell viability assay (CellTiter-Blue). Particulars: mouse Neuro2A cells, SNALP-formulated siRNA, viability at 72 h relative to PBS. Format: cell-based. The procedure:
as §2
Additional PLK-1 siRNA molecules were formulated as SNALP (“2:40” SNALP formulation: 2% PEG-cDMA; 40% DLinDMA; 10% DSPC; and 48% cholesterol) and evaluated for their inhibitory effects on cell growth in vitro. HT29 or Neuro2A cells were plated in triplicate at 5000 cells/well and 2500 cells/well, respectively. PLK-1 SNALP dosages were as follows: 25 nM; 5 nM; and 1 nM. Cell viability analysis was performed at 72 hours following transfection. SNALP containing a non-targeting (GFP) siRNA were used as a negative control.
Additional PLK-1 siRNA molecules were formulated as SNALP (“2:40” SNALP formulation: 2% PEG-cDMA; 40% DLinDMA; 10% DSPC; and 48% cholesterol) and evaluated for their inhibitory effects on cell growth in vitro. HT29 or Neuro2A cells were plated in triplicate at 5000 cells/well and 2500 cells/well, respectively. PLK-1 SNALP dosages were as follows: 30 nM; 10 nM; and 3.3 nM. Cell viability analysis was performed at 72 hours following transfection. SNALP containing a non-targeting (GFP) siRNA were used as a negative control.

The subject of the next data set is LS174T cells. Kind of data set: LS174T cell viability assay. Format: cell-based, human. The following applies: SNALP-formulated siRNA, 72 h. The protocol: as §1
The next data set concerns HepG2 cells. The data set is described as follows: HepG2 cell viability assay. Format: cell-based, human. Particulars: PLK1424 SNALP 0.31-5 nM, 72 h.

“Also recorded” adds a separate entry of the source.

Turning to “PLK1424: siRNA to human PLK-1, SEQ ID NO:1/2 (UU overhang form 211/212) (chain 1 AGAUCACCCUCCUUAAAUA; chain 2 UAUUUAAGGAGGGUGAUCU; further chemistry not given here)”, the “PLK-1 mRNA levels” value with PLK-1 mRNA (HT29 cells) and in the data set with PLK-1 mRNA (LS174T cells) was “effective at reducing PLK-1 mRNA levels” in each case. In addition, in the data set with HT29 cells, the “anti-proliferative activity in screen of PLK-1 siRNA panel” value was “most potent human siRNA”. For the same substance, in the data set on HT29 cells, the “cell viability / killing of human tumor cells” value is “highly potent at killing human tumor cells; also recorded: most potent effects; also recorded: inhibiting cell growth; also recorded: dose-dependent decrease in cell viability”. For the same substance, the “cell viability / inhibition of cell growth” value is listed as “inactivity in the mouse cell line” in the data set on Neuro2A cells and “inhibiting cell growth; also recorded: potent activity” with LS174T cells. The cell viability result with HepG2 cells was “potent activity”.

Consider “PLK773: siRNA to human PLK-1, SEQ ID NO:3/4 (UU overhang form 218/219) (chain 1 AGACCUACCUCCGGAUCAA; chain 2 UUGAUCCGGAGGUAGGUCU; RNA, backbone not given here)”, for which the “PLK-1 mRNA levels” value in the data set on PLK-1 mRNA (HT29 cells) and in the data set with PLK-1 mRNA (LS174T cells) was “effective at reducing PLK-1 mRNA levels” each time. Besides, the “anti-proliferative activity in screen of PLK-1 siRNA panel” value with HT29 cells is “most potent mouse, rat, and human cross-reactive siRNA”. For the same substance, the “cell viability / killing of human tumor cells” value in the data set on HT29 cells is “effective at killing human tumor cells; also recorded: inhibiting cell growth; also recorded: dose-dependent decrease in cell viability”. The “cell viability / inhibition of cell growth” value in the data set on Neuro2A cells is “most potent human/mouse cross-reactive siRNA molecules”; with LS174T cells, “inhibiting cell growth”.

Source of the values: patent US9006191B2, “Silencing of polo-like kinase expression using interfering RNA” (Protiva Biotherapeutics, Inc., priority 2007, dated 2015).
